Results: the supplement of paper PMC10307832

Experiments:
Experiment in all cases: relative viability (nuclei count vs DMSO), 5 days (fraction); higher = more cells survive
SGI-1776 + Lapatinib = compound: CN1CCC(CNc2ccc3ncc(-c4cccc(OC(F)(F)F)c4)n3n2)CC1 [SGI-1776] + CS(=O)(=O)CCNCc1ccc(-c2ccc3ncnc(Nc4ccc(OCc5cccc(F)c5)c(Cl)c4)c3c2)o1 [Lapatinib] (partner 2 µM)
Procedure, shortened: (§1)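 Lung cancer cell lines in 1536-well plates were dosed by pin tool the day after seeding, either with one drug alone or with a fixed anchor-drug dose plus five library-drug doses (not always all listed) in √10 steps. After 5 days, cells were fixed and their nuclei stained in one step (final 0.05% Triton X-100, 1% formaldehyde, 1 ug/ml Hoechst), then counted on 4× images. Relative viability is the nuclei count in treated wells divided by that in vehicle wells. Values are medians of duplicate plates.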

SGI-1776 + Crizotinib = compound: CN1CCC(CNc2ccc3ncc(-c4cccc(OC(F)(F)F)c4)n3n2)CC1 [SGI-1776] + C[C@@H](Oc1cc(-c2cnn(C3CCNCC3)c2)cnc1N)c1c(Cl)ccc(F)c1Cl [Crizotinib] (partner 1 µM)
Procedure, shortened: as §1

Entinostat + Dasatinib = compound: Nc1ccccc1NC(=O)c1ccc(CNC(=O)OCc2cccnc2)cc1 [Entinostat] + Cc1nc(Nc2ncc(C(=O)Nc3c(C)cccc3Cl)s2)cc(N2CCN(CCO)CC2)n1 [Dasatinib] (partner 0.075 µM)
Procedure, shortened: as §1

NCI-H1299
relative viability (SGI-1776 + Lapatinib; first compound 0.08 µM): 1.02
relative viability (SGI-1776 + Lapatinib; first compound 0.8 µM): 0.991
relative viability (SGI-1776 + Lapatinib; first compound 2.53 µM): 0.99
relative viability (SGI-1776 + Lapatinib; first compound 8 µM): 0.95
relative viability (SGI-1776 + Crizotinib; first compound 0.08 µM): 0.969
relative viability (SGI-1776 + Crizotinib; first compound 0.8 µM): 0.969
relative viability (SGI-1776 + Crizotinib; first compound 2.53 µM): 0.917
relative viability (SGI-1776 + Crizotinib; first compound 8 µM): 0.807

HCC-827
relative viability (SGI-1776 + Lapatinib; first compound 0.08 µM): 0.168
relative viability (SGI-1776 + Lapatinib; first compound 0.8 µM): 0.201
relative viability (SGI-1776 + Lapatinib; first compound 2.53 µM): 0.16
relative viability (SGI-1776 + Lapatinib; first compound 8 µM): 0.194
relative viability (Entinostat + Dasatinib; first compound 0.02 µM): 0.255
relative viability (Entinostat + Dasatinib; first compound 0.06325 µM): 0.269
relative viability (Entinostat + Dasatinib; first compound 0.2 µM): 0.23
relative viability (Entinostat + Dasatinib; first compound 0.6325 µM): 0.227
relative viability (Entinostat + Dasatinib; first compound 2 µM): 0.294
relative viability (SGI-1776 + Crizotinib; first compound 0.08 µM): 0.956
relative viability (SGI-1776 + Crizotinib; first compound 0.8 µM): 0.975
relative viability (SGI-1776 + Crizotinib; first compound 2.53 µM): 0.985
relative viability (SGI-1776 + Crizotinib; first compound 8 µM): 0.915

EMC-BAC-2
relative viability (SGI-1776 + Lapatinib; first compound 0.08 µM): 0.912
relative viability (SGI-1776 + Lapatinib; first compound 0.8 µM): 0.902
relative viability (SGI-1776 + Lapatinib; first compound 2.53 µM): 0.836
relative viability (SGI-1776 + Lapatinib; first compound 8 µM): 0.849
relative viability (Entinostat + Dasatinib; first compound 0.02 µM): 0.349
relative viability (Entinostat + Dasatinib; first compound 0.06325 µM): 0.318
relative viability (Entinostat + Dasatinib; first compound 0.2 µM): 0.298
relative viability (Entinostat + Dasatinib; first compound 0.6325 µM): 0.177
relative viability (Entinostat + Dasatinib; first compound 2 µM): 0.109
relative viability (SGI-1776 + Crizotinib; first compound 0.08 µM): 0.838
relative viability (SGI-1776 + Crizotinib; first compound 0.8 µM): 0.7
relative viability (SGI-1776 + Crizotinib; first compound 2.53 µM): 0.701
relative viability (SGI-1776 + Crizotinib; first compound 8 µM): 0.461

NCI-H596
relative viability (SGI-1776 + Lapatinib; first compound 0.08 µM): 1.08
relative viability (SGI-1776 + Lapatinib; first compound 0.8 µM): 1.06
relative viability (SGI-1776 + Lapatinib; first compound 2.53 µM): 0.906
relative viability (SGI-1776 + Lapatinib; first compound 8 µM): 0.825
relative viability (Entinostat + Dasatinib; first compound 0.02 µM): 0.627
relative viability (Entinostat + Dasatinib; first compound 0.06325 µM): 0.593
relative viability (Entinostat + Dasatinib; first compound 0.2 µM): 0.576
relative viability (Entinostat + Dasatinib; first compound 0.6325 µM): 0.448
relative viability (Entinostat + Dasatinib; first compound 2 µM): 0.378
relative viability (SGI-1776 + Crizotinib; first compound 0.08 µM): 1.08
relative viability (SGI-1776 + Crizotinib; first compound 0.8 µM): 1.06
relative viability (SGI-1776 + Crizotinib; first compound 2.53 µM): 0.945
relative viability (SGI-1776 + Crizotinib; first compound 8 µM): 0.854

NCI-H1792
relative viability (SGI-1776 + Lapatinib; first compound 0.08 µM): 0.908
relative viability (SGI-1776 + Lapatinib; first compound 0.8 µM): 0.988
relative viability (SGI-1776 + Lapatinib; first compound 2.53 µM): 0.867
relative viability (SGI-1776 + Lapatinib; first compound 8 µM): 0.756
relative viability (Entinostat + Dasatinib; first compound 0.02 µM): 0.692
relative viability (Entinostat + Dasatinib; first compound 0.06325 µM): 0.802
relative viability (Entinostat + Dasatinib; first compound 0.2 µM): 0.825
relative viability (Entinostat + Dasatinib; first compound 0.6325 µM): 0.452
relative viability (Entinostat + Dasatinib; first compound 2 µM): 0.402
relative viability (SGI-1776 + Crizotinib; first compound 0.08 µM): 1.04
relative viability (SGI-1776 + Crizotinib; first compound 0.8 µM): 1.05
relative viability (SGI-1776 + Crizotinib; first compound 2.53 µM): 0.965
relative viability (SGI-1776 + Crizotinib; first compound 8 µM): 1.09

NCI-H2009
relative viability (SGI-1776 + Lapatinib; first compound 0.08 µM): 0.985
relative viability (SGI-1776 + Lapatinib; first compound 0.8 µM): 0.897
relative viability (SGI-1776 + Lapatinib; first compound 2.53 µM): 1
relative viability (SGI-1776 + Lapatinib; first compound 8 µM): 0.766
relative viability (Entinostat + Dasatinib; first compound 0.02 µM): 0.329
relative viability (Entinostat + Dasatinib; first compound 0.06325 µM): 0.331
relative viability (Entinostat + Dasatinib; first compound 0.2 µM): 0.376
relative viability (Entinostat + Dasatinib; first compound 0.6325 µM): 0.346
relative viability (Entinostat + Dasatinib; first compound 2 µM): 0.241
relative viability (SGI-1776 + Crizotinib; first compound 0.08 µM): 1.04
relative viability (SGI-1776 + Crizotinib; first compound 0.8 µM): 1.02
relative viability (SGI-1776 + Crizotinib; first compound 2.53 µM): 1.07
relative viability (SGI-1776 + Crizotinib; first compound 8 µM): 0.675

NCI-H2347
relative viability (SGI-1776 + Lapatinib; first compound 0.08 µM): 1.13
relative viability (SGI-1776 + Lapatinib; first compound 0.8 µM): 0.965
relative viability (SGI-1776 + Lapatinib; first compound 2.53 µM): 0.948
relative viability (SGI-1776 + Lapatinib; first compound 8 µM): 0.869
relative viability (Entinostat + Dasatinib; first compound 0.02 µM): 0.325
relative viability (Entinostat + Dasatinib; first compound 0.06325 µM): 0.328
relative viability (Entinostat + Dasatinib; first compound 0.2 µM): 0.196
relative viability (Entinostat + Dasatinib; first compound 0.6325 µM): 0.193
relative viability (Entinostat + Dasatinib; first compound 2 µM): 0.205
relative viability (SGI-1776 + Crizotinib; first compound 0.08 µM): 0.687
relative viability (SGI-1776 + Crizotinib; first compound 0.8 µM): 0.637
relative viability (SGI-1776 + Crizotinib; first compound 2.53 µM): 0.772
relative viability (SGI-1776 + Crizotinib; first compound 8 µM): 0.511

SW 900
relative viability (Entinostat + Dasatinib; first compound 0.02 µM): 0.795
relative viability (Entinostat + Dasatinib; first compound 0.06325 µM): 0.589
relative viability (Entinostat + Dasatinib; first compound 0.2 µM): 0.661
relative viability (Entinostat + Dasatinib; first compound 0.6325 µM): 0.444
relative viability (Entinostat + Dasatinib; first compound 2 µM): 0.248

NCI-H1563
relative viability (SGI-1776 + Lapatinib; first compound 0.08 µM): 0.869
relative viability (SGI-1776 + Lapatinib; first compound 0.8 µM): 0.939
relative viability (SGI-1776 + Lapatinib; first compound 2.53 µM): 1.02
relative viability (SGI-1776 + Lapatinib; first compound 8 µM): 0.825
relative viability (Entinostat + Dasatinib; first compound 0.02 µM): 0.465
relative viability (Entinostat + Dasatinib; first compound 0.06325 µM): 0.48
relative viability (Entinostat + Dasatinib; first compound 0.2 µM): 0.438
relative viability (Entinostat + Dasatinib; first compound 0.6325 µM): 0.461
relative viability (Entinostat + Dasatinib; first compound 2 µM): 0.42
relative viability (SGI-1776 + Crizotinib; first compound 0.08 µM): 0.833
relative viability (SGI-1776 + Crizotinib; first compound 0.8 µM): 0.888
relative viability (SGI-1776 + Crizotinib; first compound 2.53 µM): 0.906
relative viability (SGI-1776 + Crizotinib; first compound 8 µM): 0.785

SK-MES-1
relative viability (SGI-1776 + Lapatinib; first compound 0.08 µM): 0.494
relative viability (SGI-1776 + Lapatinib; first compound 0.8 µM): 0.447
relative viability (SGI-1776 + Lapatinib; first compound 2.53 µM): 0.449
relative viability (SGI-1776 + Lapatinib; first compound 8 µM): 0.404
relative viability (Entinostat + Dasatinib; first compound 0.02 µM): 0.403
relative viability (Entinostat + Dasatinib; first compound 0.06325 µM): 0.498
relative viability (Entinostat + Dasatinib; first compound 0.2 µM): 0.541
relative viability (Entinostat + Dasatinib; first compound 0.6325 µM): 0.338
relative viability (Entinostat + Dasatinib; first compound 2 µM): 0.175
relative viability (SGI-1776 + Crizotinib; first compound 0.08 µM): 1.11
relative viability (SGI-1776 + Crizotinib; first compound 0.8 µM): 0.947
relative viability (SGI-1776 + Crizotinib; first compound 2.53 µM): 1.02
relative viability (SGI-1776 + Crizotinib; first compound 8 µM): 0.979

NCI-H3122
relative viability (SGI-1776 + Lapatinib; first compound 0.08 µM): 0.964
relative viability (SGI-1776 + Lapatinib; first compound 0.8 µM): 1.05
relative viability (SGI-1776 + Lapatinib; first compound 2.53 µM): 1.07
relative viability (SGI-1776 + Lapatinib; first compound 8 µM): 0.988
relative viability (Entinostat + Dasatinib; first compound 0.02 µM): 1.03
relative viability (Entinostat + Dasatinib; first compound 0.06325 µM): 0.98
relative viability (Entinostat + Dasatinib; first compound 0.2 µM): 0.812
relative viability (Entinostat + Dasatinib; first compound 0.6325 µM): 0.629
relative viability (Entinostat + Dasatinib; first compound 2 µM): 0.0849
relative viability (SGI-1776 + Crizotinib; first compound 0.08 µM): 0.284
relative viability (SGI-1776 + Crizotinib; first compound 0.8 µM): 0.3
relative viability (SGI-1776 + Crizotinib; first compound 2.53 µM): 0.295
relative viability (SGI-1776 + Crizotinib; first compound 8 µM): 0.335
